IC50 data for six molecules are collected here from patent publication US5955489A, “Taxane derivatives, the preparation thereof and formulations containing them” (Indea S.p.A., priority 1996, dated 1999).

Where two headings read alike, the source gives them in different places.

Experiment [1] has as its system Line MDA (normal ovary cell line). Kind of experiment: cytotoxicity on a normal ovary cell line (Line MDA). The format is cell-based. To be noted: read-out: IC50 Line MDA.
The test system of experiment [2] is Line MCF7-ADRr (adriamycin-resistant). Kind of experiment: cytotoxicity on an adriamycin-resistant cell line (Line MCF7-ADRr). The format is cell-based. To be noted: read-out: IC50 Line MCF7-ADRr.
Setting [3] is: Line MDA, normal ovary cell line.

The term IC50 denotes the concentration that inhibits the measured activity by half. Regarding `CC(=O)O[C@@]12CO[C@@H]1CC1NN=C3C(=O)C4=C(C)[C@@H](OC(=O)[C@H](O)[C@@H](NC(=O)c5ccccc5)c5ccccc5)C[C@@](O)([C@@H](OC(=O)c5ccccc5)[C@H]2[C@]31C)C4(C)C` (stereo partly drawn) [Compound of example 2, 10-deacetyl-10-dehydro-Paclitaxel pyrazoline], the half-maximal inhibitory concentration (IC50) in experiment [1] came out at 3.1 nM. For `CC(=O)O[C@H]1C(=O)[C@@]2(C)[C@H]([C@H](OC(=O)c3ccccc3)[C@]3(O)C[C@H](OC(=O)[C@H](O)[C@@H](NC(=O)c4ccccc4)c4ccccc4)C(C)=C1C3(C)C)[C@]1(OC(C)=O)CO[C@@H]1C[C@@H]2O` [Paclitaxel, reference compound], the IC50 came to 2.4 nM in experiment [1] and 2600 nM in experiment [2]. For `CC(=O)O[C@@]12CO[C@@H]1CC1NN=C3C(=O)C4=C(C)[C@@H](OC(=O)[C@H](O)[C@@H](NC(=O)OC(C)(C)C)c5ccccc5)[C@@H]5OC(=O)O[C@]5([C@@H](OC(=O)c5ccccc5)[C@H]2[C@]31C)C4(C)C` (stereo partly drawn) [Compound of example 6, 13-(N-Boc-phenyl-isoserinyl)-1,14-carbonate10-dehydro-10-deacetyl-baccatine III pyrazoline], in experiment [1], the IC50 was found to be 2.1 nM. In the case of “13-(N-Boc-phenylisoserinyl)-10-dehydro-10-deacetyl-baccatine III pyrazoline [Compound of example 4]”, the concentration for half-maximal inhibition (IC50) was determined as 1.2 nM in experiment [1] (setting [3]) and 264 nM in experiment [2]. Consider `CC(=O)O[C@@]12CO[C@@H]1CC1NN=C3C(=O)C4=C(C)[C@@H](OC(=O)[C@H](O)[C@H](CC(C)C)NC(=O)OC(C)(C)C)C[C@@](O)([C@@H](OC(=O)c5ccccc5)[C@H]2[C@]31C)C4(C)C` (stereo partly drawn) [Compound of example 5, 13-(N-Boc-3'-isobutyl)-isoserinyl-10-dehydrobaccatine III pyrazoline], for which the IC50 in experiment [1] came to 1.4 nM. On to `CC(=O)O[C@@]12CO[C@@H]1C[C@H](O)[C@@]1(C)C(=O)[C@H](O)C3=C(C)[C@@H](OC(=O)[C@H](O)[C@@H](NC(=O)OC(C)(C)C)c4ccccc4)C[C@@](O)([C@@H](OC(=O)c4ccccc4)[C@H]21)C3(C)C` [Docetaxel, reference compound], for which the IC50 in experiment [1] (setting [3]) is 0.8 nM; in experiment [2] (Line MCF7-ADRr, adriamycin-resistant) it was 700 nM.
